We go through ten compounds from US8143282B2, “Heterocyclic compounds” (S*BIO Pte Ltd., priority 2005, dated 2012).

One data set deals with T1, HDAC1 enzyme (Homo sapiens, UniProt Q13547).
T1 construct: Amplification of human HDAC1 coding region from this cDNA library was cloned separately into the baculovirus expression pDEST20 vector; made in house; host or cells: SF9 insect cells, pDEST20-HDAC1 baculovirus
Nature of the data set: In vitro HDAC assay for determination of IC50 values (BIOMOL fluorescent-based HDAC activity assay). In kind it is biochemical. A digest of the protocol: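 Recombinant GST-HDAC1, cloned from SW620 cDNA and expressed in Sf9 cells, tested in a fluorogenic Fluor de Lys deacetylase assay. Developer was added for 10 min and fluorescence read at 360/460 nm. IC50 came from concentration series.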

A further data set has as its system Colo205 cells. Put plainly: Cell-based proliferation assay for GI50 (CyQUANT), Colo205. The following applies: Homo sapiens, COLO 205, 96 h treatment, read-out: Cellular or Growth Inhibition Activity in Colo205 cells, GI50. A digest of the protocol: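 Cells were seeded at 1000 (PC3), 5000 (Colo205), 6000 (HCT116) or 4000 (HEP3B) per well and left 24 h at 37° C. Compound treatment lasted 96 h. Growth was read by CyQUANT, and GI50 (50% growth inhibition) came from dose-response curves.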

A further data set has as its system HCT116. Put plainly: Cell-based proliferation assay for GI50 (CyQUANT), HCT116. The following applies: Homo sapiens, HCT-116; HCT116, 96 h treatment; read-out: Cellular or Growth Inhibition Activity, GI50, HCT116. On the procedure: (§1) Human colon cancer cell lines (Colo205, HCT116), Ovarian cancer cell line (A2780), Hepatoma cell line (HEP3B), Prostate cancer cell line (PC3) were obtained from ATCC or ECACC. Colo205 cells were cultivated in RPMI 1640 containing 2 mM L-Glutamine, 5% FBS, 1.0 mM Na Pyruvate, 1 U/ml of penicillin and 1 μg of streptomycin. HCT116 cells were cultivated in McCoy's containing RPMI 1640 containing 2 mM L-Glutamine, 5% FBS, 1 U/ml of penicillin and 1 μg of streptomycin. A2780 cells were cultivated in RPMI 1640 containing 2 mM L-Glutamine, 5% FBS, 1 U/ml of penicillin and 1 μg of streptomycin. HEP3B cells were cultivated in EMEM containing 2 mM L-glutamine, 5% FBS, 1% non essential amino acid, 1 mM Na Pyruvate, 1 U/ml of penicillin and 1 μg of streptomycin. PC3 cells were cultivated in F12K, 2 mM L-glutamine, 5% FBS, 1 U/ml of penicillin and 1 μg of streptomycin. PC3, Colo205, and HCT116 cells were seeded in 96-wells plate at 1000, 5000 and 6000 cells per well respectively. A2780 and HEP3B cells were seeded in 96-wells plate at 4000 cells per well respectively. The plates were incubated at 37° C., 5% CO2, for 24 h. Cells were treated with compounds at various concentrations for 96 h. Cell growth was then monitored using CyQUANT® cell proliferation assay (Invitrogen Pte Ltd). Dose response curves were plotted to determine GI50 values for the compounds using XL-fit (ID Business Solution, Emeryville, Calif.). GI50 is defined as the concentration of compound required for 50% inhibition of cell growth.

Another data set deals with A2780. Nature of the data set: Cell-based proliferation assay for GI50 (CyQUANT), A2780. The following applies: Homo sapiens; A2780, 96 h treatment; read-out: Cellular or Growth Inhibition Activity, GI50, A2780. On the procedure:
as §1

The subject of the next data set is PC3. Nature of the data set: Cell-based proliferation assay for GI50 (CyQUANT), PC3. As to conditions: Homo sapiens, PC-3; PC3, 96 h treatment; read-out: Cellular or Growth Inhibition Activity, GI50, PC3. On the procedure: as §1
The next data set deals with HEP3B. Nature of the data set: Cell-based proliferation assay for GI50 (CyQUANT), HEP3B. The following applies: Homo sapiens, 96 h treatment, read-out: Cellular or Growth Inhibition Activity, GI50, HEP3B. On the procedure: as §1
Data set [1] can be described thus: Measurement of microsomal stability. It is filed as in vitro ADME. As to conditions: pooled human liver microsomes, pH 7.4; human liver microsome, 5 μM test compound, 1.0 mg/ml microsomal protein. The protocol: Metabolic stability measurements in the in vitro using liver microsomes aids in the prediction of the in vivo hepatic clearance and the compound stability towards phase I biotransformation reactions mediated by P450 isozymes.
Pooled human liver microsome (HLM was purchased from BD Gentest (BD BioSciences). The incubations consisted of test compound (5 μM) or control compound (Verapamil), NADPH-generating system solution A (25 mM NADP^+, 66 mM glucose-6-phosphate, 66 mM MgCl2 in H2O), NADPH-generating system solution B (40 U/ml glucose-6-phosphate dehydrogenase in 5 mM sodium citrate) and 1.0 mg/ml microsomal protein, respectively, in 100 mM potassium phosphate buffer (pH 7.4). Samples were incubated for 0, 5, 15, 30, 45, 60 min. Reaction was terminated with ice-cold 80% acetonitrile and 20% DMSO. Samples were subsequently centrifuged at 4° C. for 15 min at 2,000 rpm. 100 μL of the supernatant was transferred to the LC-MS Plate for analysis. Before quantitative analysis, the compound was tuned in LC/MS machine to get the optimized MS condition. Liquid chromatography was performed on a Luna C18 column (Phenomenex U.S.A, Torrance, Calif.) (2×50 mm, 5 μM). % of the compound remaining (by area) at each time point is calculated with respect to time 0 min. Plot % remaining against time (min) to obtain the curve and use the Prism software to obtain the t1/2.
Background: Microsomes from liver hold many membrane-bound enzymes, among them those of drug oxidation.

Data set [2] can be described thus: In vivo pharmacokinetic (PK) studies. The following applies: mouse, plasma, po; mice, hydrochloric acid salt form (2HCl), 50 mg/kg. The protocol: Compound was dissolved in appropriate solution (saline or DMA and Cremaphor in saline) at 1 mg/ml for intravenous (IV) administration, or in 0.5% methyl cellulose, 0.1% Tween 80 in water at 5 mg/ml for oral administration. Mice were randomized according to body weight, grouped three per time point. Mice were administered single IV dose (10 mg/kg) via tail vein, or single oral dose (50 mg/kg) via gavage. At pre-defined time points (predose, 5 or 10, 30 min, 1, 2, 4, 8, and 24 h), one group of mice was sacrificed by overdose CO2 and blood samples were collected by cardiac puncture. The blood samples were centrifuged immediately for 10 min at 3000 rpm to separate plasma, and plasma was kept frozen at −80° C. until analysis by LC/MS/MS. Before sample analysis, the method was developed for LC/MS/MS assay. The method was validated for signal-response of the calibration standards, auto-sampler stability for ˜15 hours intra-day and inter-day calibration curve using eight calibration standards excluding the blank plasma. QC samples at three different concentrations in triplicates were prepared to determine the accuracy and precision. The extracted QC samples were compared to unextracted samples to determine the extraction efficiency of the analyte. LLOQ was determined by using triplicate samples of 1 ng/mL and 2 ng/mL to obtain accuracy and precision at the low end. Samples were analysed using the validated method. Data was analyzed by the non-compartmental model using WinNolin 4.0 software (Pharsight, Mountain View, Calif., USA). The mean values for the plasma compound concentration-time profiles were used in mouse PK study.
The PK parameter AUC0-last providing the information on the overall exposure of the drug in vivo is one of the key PK/PD parameters that helps in predicting the efficacy of an anti-cancer compound. The higher the AUC value, the better will be the in vivo efficacy of the compound at similar in vitro potency.

A further data set deals with acetylated histone H3. Put plainly: Histone H3 acetylation assay (immuno-blotting) in Colo205 cells. It is filed as cell-based, Human. As to conditions: 10 μM, 24 h, western-blot. On the procedure:
A hallmark of histone deacetylase (HDAC) inhibition is the increase in the acetylation level of histones. Histone acetylation, including H3, H4 and H2A can be detected by immuno-blotting (western-blot). Colo205 cells, approximately 5×10^5 cells, were seeded in the previously described medium, cultivated for 24 h and subsequently treated with HDAC inhibitory agents and a positive control at a final concentration of 10 μM. After 24 h, cells were harvested and lysed according to the instruction from Sigma Mammalian Cell Lysis Kit. The protein concentration was quantified using BCA method (Sigma Pte Ltd). The protein lysate was separated using 4-12% bis-tris SDS-PAGE gel (Invitrogen Pte Ltd) and was transferred onto PVDF membrane (BioRad Pte Ltd). The membrane was probed using primary antibody specific for acetylated histone H3 (Upstate Pte Ltd). The detection antibody, goat anti rabbit antibody conjugated with HRP was used according to the manufacturing instruction (Pierce Pte Ltd). After removing the detection antibody from the membrane, an enhanced chemiluminescent substrate for detection of HRP (Pierce Pte Ltd) was added onto the membrane. After removing the substrate, the membrane was exposed to an X-ray film (Kodak) for 1 sec-20 mins. The X-ray film was developed using the X-ray film processor. The density of each band observed on the developed film could be qualitatively analyzed using UVP Bioimaging software (UVP, Inc, Upland, Calif.). The values were then normalized against the density of actin in the corresponding samples to obtain the expression of the protein.

Molecules are shown by their SMILES.

T1 sequence (Q13547 whole entry): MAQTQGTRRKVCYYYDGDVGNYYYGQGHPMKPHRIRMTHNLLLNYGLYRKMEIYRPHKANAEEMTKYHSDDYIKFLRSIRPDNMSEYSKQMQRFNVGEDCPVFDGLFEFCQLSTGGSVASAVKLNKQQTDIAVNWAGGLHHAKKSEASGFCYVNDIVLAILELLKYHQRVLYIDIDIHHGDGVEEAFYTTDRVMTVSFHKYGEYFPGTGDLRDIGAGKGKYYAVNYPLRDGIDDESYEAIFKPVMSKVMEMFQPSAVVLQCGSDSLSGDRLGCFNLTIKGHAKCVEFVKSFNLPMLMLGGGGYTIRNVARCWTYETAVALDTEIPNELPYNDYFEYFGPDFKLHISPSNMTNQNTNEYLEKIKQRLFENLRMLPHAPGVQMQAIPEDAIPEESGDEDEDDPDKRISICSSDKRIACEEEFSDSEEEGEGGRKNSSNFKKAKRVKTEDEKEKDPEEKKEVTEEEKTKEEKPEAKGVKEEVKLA

For `CN(C)CC(C)(C)Cn1c(CC(C)(C)C)nc2cc(/C=C/C(=O)NO)ccc21` [Compound 1, 3-[1-(3-Dimethylamino-2,2-dimethyl-propyl)-2-(2,2-dimethyl-propyl)-1H-benzoimidazol-5-yl]-N-hydroxy-acrylamide], at HDAC1 enzyme, it took 42 nM to reach half-maximal inhibition (IC50). Also, the GI50 (commonly the concentration at which growth is held to half of that of the control) in the data set on Colo205 cells is 500 nM; in the data set on HCT116 it was 500 to 1000 nM; in the data set with A2780, below 500 nM; in the data set with PC3 it was below 500 nM; in the data set on HEP3B, 500 to 1000 nM. In addition, in data set [1], the half-life (usually how long it takes for the measured level to halve) at 5 μM is above 30 min. In [2], the AUC(0-t) (in general, exposure summed from dosing to a finite time, without extrapolation to infinity) stood at 1870 ng·h/mL.
For the compound `CCCCc1nc2cc(/C=C/C(=O)NO)ccc2n1CCN(CC)CC` [Compound 8, 3-[2-Butyl-1-(2-diethylamino-ethyl)-1H-benzoimidazol-5-yl]-N-hydroxy-acrylamide], half-maximal inhibition at HDAC1 enzyme (IC50) required 52 nM. The GI50 is 560 nM in the data set with Colo205 cells; 500 to 1000 nM in the data set with HCT116; 500 to 1000 nM in the data set with A2780; below 500 nM with PC3; 1000 to 5000 nM with HEP3B. In data set [1], this compound gave a half-life at 5 μM above 30 min. Besides, in data set [2], the area under the curve AUC(0-t) amounted to 1840 ng·h/mL.
For `CCCCc1nc2cc(/C=C/C(=O)NO)ccc2n1CCNC(C)C` [Compound 46, 3-[2-Butyl-1-(2-isopropylamino-ethyl)-1H-benzoimidazol-5-yl]-N-hydroxy-acrylamide], the IC50 – broadly, the concentration needed to halve the response being measured – on HDAC1 enzyme was found to be 49 nM. The GI50 in the data set with Colo205 cells is 480 nM; in the data set with HCT116, below 500 nM; in the data set with A2780, below 500 nM; in the data set on PC3 it was below 500 nM; with HEP3B, 500 to 1000 nM. The half-life at 5 μM in data set [1] was above 30 min.
In turn, `CCCCCCc1nc2cc(/C=C/C(=O)NO)ccc2n1CCN(C)C` [Compound 58, 3-[1-(2-Dimethylamino-ethyl)-2-hexyl-1H-benzoimidazol-5-yl]-N-hydroxy-acrylamide] had an IC50 against HDAC1 enzyme of 30 nM. For the same compound, the concentration for 50% growth inhibition (GI50) in the data set on Colo205 cells was 380 nM; in the data set with HCT116, below 500 nM; with A2780 it was below 500 nM; in the data set on PC3 it was below 500 nM; in the data set with HEP3B, below 500 nM. This compound registered a half-life at 5 μM in data set [1] above 30 min.
Compound `CCNCCn1c(CCC(C)(C)C)nc2cc(/C=C/C(=O)NO)ccc21` [Compound 63, 3-[1-(2-ethylamino-ethyl)-2-(3,3-dimethyl-butyl)-1H-benzoimidazol-5-yl]-N-hydroxy-acrylamide] registered an IC50 at HDAC1 enzyme of 51 nM. In addition, the GI50 in the data set on Colo205 cells came to 540 nM. Also, the “Histone Acetylation activities (Histone-3)” value in the data set on acetylated histone H3 is recorded as “Active”. In data set [1], this compound came in with a half-life at 5 μM above 30 min.
On HDAC1 enzyme, `CCCCCc1nc2cc(/C=C/C(=O)NO)ccc2n1CCN(C)C` [Compound 65, 3-[1-(2-Dimethylamino-ethyl)-2-pentyl-1H-benzoimidazol-5-yl]-N-hydroxy-acrylamide] registered an IC50 of 78 nM. Also, the GI50 in the data set on Colo205 cells amounted to 560 nM. In addition, the “Histone Acetylation activities (Histone-3)” value with acetylated histone H3 is recorded as “Active”.
For the compound `CCCCCc1nc2cc(/C=C/C(=O)NO)ccc2n1CCNCC` [Compound 68, 3-[1-(2-Ethylamino-ethyl)-2-pentyl-1H-benzoimidazol-5-yl]-N-hydroxy-acrylamide], at HDAC1 enzyme, the IC50 is 34 nM. Besides, the 50% growth inhibitory concentration (GI50) with Colo205 cells came out at 520 nM. Further, the “Histone Acetylation activities (Histone-3)” value in the data set on acetylated histone H3 is recorded as “Active”. Moreover, the half-life at 5 μM in [1] is above 30 min.
Regarding `CCCCCc1nc2cc(/C=C/C(=O)NO)ccc2n1CCNC(C)C` [Compound 71, N-Hydroxy-3-[1-(2-isopropylamino-ethyl)-2-pentyl-1H-benzoimidazol-5-yl]-acrylamide], the IC50 on HDAC1 enzyme was 40 nM. Moreover, the GI50 is 240 nM in the data set with Colo205 cells, below 500 nM in the data set on HCT116, below 500 nM with A2780 and below 500 nM in the data set with PC3. The “Histone Acetylation activities (Histone-3)” value in the data set on acetylated histone H3 is recorded as “Active”. This compound yielded a half-life at 5 μM in [1] above 30 min.
`CCCCCCc1nc2cc(/C=C/C(=O)NO)ccc2n1CCNC` [Compound 74, 3-[2-Hexyl-1-(2-methylamino-ethyl)-1H-benzoimidazol-5-yl]-N-hydroxy-acrylamide] registered a half-inhibitory concentration (IC50) at HDAC1 enzyme of 28 nM. Further, the GI50 in the data set with Colo205 cells worked out at 550 nM. In the data set with acetylated histone H3, the “Histone Acetylation activities (Histone-3)” value is listed as “Active”. This compound registered a half-life at 5 μM in [1] above 30 min.
For `CCN(CCn1cnc2cc(/C=C/C(=O)NO)ccc21)CCC(C)(C)C` [Compound 111, 3-(1-{2-[(3,3-Dimethyl-butyl)-ethyl-amino]-ethyl}-1H-benzoimidazol-5-yl)-N-hydroxy-acrylamide], half-maximal inhibition on HDAC1 enzyme (IC50) required 29 nM. The GI50 with Colo205 cells was 210 nM; in the data set with HEP3B, below 500 nM.
